Values of other authors, collected in patent publication US6767895B2 (priority 2000, dated 2004).

Details: in vivo; cited from earlier work

contulakin-G
potency in inhibiting pain relative to neurotensin: significantly more potent than neurotensin
